Source: patent US11377441B2, “Covalent inhibitors of KRAS” (Araxes Pharma LLC, priority 2017, dated 2022)

Biological target: T1, KRAS G12C 1-169, his-tagged protein, GDP-loaded (Homo sapiens, UniProt P01116, G12C)
T1 construct: KRAS G12C 1-169, his-tagged protein, GDP-loaded
Experiment: Biochemical assay: covalent modification of KRAS G12C measured by mass spectrometry (RapidFire/TOF or Q-Exactive)
Type: binding
Conditions: covalent binding to (modification of) KRAS G12C after a ten minute incubation period
Summary of the method: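 GDP-loaded KRAS G12C 1-169 (his-tagged) at 2 μM or 0.5 μM in 20 mM Hepes, 150 mM NaCl, 1 mM MgCl2, incubated with compound at 100, 30 or 10 μM at room temperature for 10 min, 30 min, 2 h or 24 h, then quenched with formic acid. Intact-protein LC-MS, deconvolved; percent modification from modified versus unmodified protein.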

SMILES: C=CC(=O)N1C[C@H](C)N(c2nc(N3CC(N(C)C)C3)nc3c(F)c(-c4cccc5snc(C)c45)c(Cl)cc23)C[C@H]1C [Compound 157, 1-((2R,5S)-4-(6-chloro-2-(3-(dimethylamino)azetidin-1-yl)-8-fluoro-7-(3-methylbenzo[d]isothia-zol-4-yl)quinazolin-4-yl)-2,5-dimethylpiperazin-1-yl)prop-2-en-1-one]
- Binding %: +++ (+++ indicates binding activity greater than 80%)

SMILES: C=CC(=O)N1C[C@H](C)N(c2nc(N3CC(N(C)C)C3)nc3c(F)c(-c4c(F)ccc5cnn(C6CC6)c45)c(Cl)cc23)C[C@H]1C [Compound 200, 1-((2R,5S)-4-(6-chloro-7-(1-cyclopropyl-6-fluoro-1H-indazol-7-yl)-2-(3-(dimethylamino)azetidin-1-yl)-8-fluoroquinazolin-4-yl)-2,5-dimethylpiperazin-1-yl)prop-2-en-1-one]
- Binding %: + (+ indicates binding activity greater than 0% and up to 50%)

SMILES: C=CC(=O)N1C[C@H](C)N(c2nc(OCCN3CCCC(F)(F)C3)nc3c(F)c(-c4c(C)ccc5[nH]nc(N)c45)c(Cl)cc23)C[C@H]1C [Compound 114, 1-((2R,5S)-4-(7-(3-amino-5-methyl-1H-indazol-4-yl)-6-chloro-2-(2-(3,3-difluoropiperidin-1-yl)ethoxy)-8-fluoroquinazolin-4-yl)-2,5-dimethylpiperazin-1-yl)prop-2-en-1-one]
- Binding %: +++ (+++ indicates binding activity greater than 80%)

SMILES: C=CC(=O)N1C[C@H](C)N(c2nc(OC[C@H]3COCCN3C)nc3c(F)c(-c4c(C)ccc5[nH]nc(C)c45)c(Cl)cc23)C[C@H]1C [Compound 181, 1-((2R,5S)-4-(6-chloro-7-(3,5-dimethyl-1H-indazol-4-yl)-8-fluoro-2-(((R)-4-methylmorpholin-3-yl)methoxy)quinazolin-4-yl)-2,5-dimethylpiperazin-1-yl)prop-2-en-1-one]
- Binding %: + (+ indicates binding activity greater than 0% and up to 50%)

SMILES: C=CC(=O)N1CCN(c2nc(N3CC(N(C)C)C3)nc3c(F)c(-c4c(C)ccc5cn[nH]c45)c(Cl)cc23)CC1CC#N (centres unmarked) [Compound 266, 2-(1-acryloyl-4-(6-chloro-2-(3-(dimethylamino)azetidin-1-yl)-8-fluoro-7-(6-methyl-1H-indazol-7-yl)quinazolin-4-yl)piperazin-2-yl)acetonitrile]
- Binding %: ++ (++ indicates binding activity from 50 to 80%)

SMILES: C=CC(=O)N1C[C@H](C)N(c2nc(NCCC(=O)N3CCCC3)nc3c(F)c(-c4c(C)ccc5onc(N)c45)c(Cl)cc23)C[C@H]1C [Compound 93, 1-((2R,5S)-4-(7-(3-amino-5-methylbenzo[d]isoxazol-4-yl)-6-chloro-8-fluoro-2-(3-oxo-3-(pyrrolidin-1-yl)propylamino)quinazo-lin-4-yl)-2,5-dimethylpiperazin-1-yl)prop-2-en-1-one]
- Binding %: ++ (++ indicates binding activity from 50 to 80%)

SMILES: C=CC(=O)N1C[C@H](C)N(c2nc(N3CC(N(C)C)C3)nc3c(F)c(-c4c(C)ccc5[nH]nc(NC(C)=O)c45)c(Cl)cc23)C[C@H]1C [Compound 119, N-(4-(4-((2S,5R)-4-acryloyl-2,5-dimethylpiperazin-1-yl)-6-chloro-2-(3-(dimethylamino)azetidin-1-yl)-8-fluoroquinazolin-7-yl)-5-methyl-1H-indazol-3-yl)acetamide]
- Binding %: + (+ indicates binding activity greater than 0% and up to 50%)

SMILES: C=CC(=O)N1CCN(c2nc(N3CC(N(C)C)C3)nc3c(F)c(-c4c(C)ccc5cnn(C)c45)c(Cl)cc23)C[C@H]1C (atropisomer, axis not shown) [Compound 143, 1-((R)-4-((S)-6-chloro-7-(1,6-dimethyl-1H-indazol-7-yl)-2-(3-(dimethylamino)azetidin-1-yl)-8-fluoroquinazolin-4-yl)-2-methylpiperazin-1-yl)prop-2-en-1-one]
- Binding %: + (+ indicates binding activity greater than 0% and up to 50%)

SMILES: C=CC(=O)N1C[C@H](C)N(c2nc(OC[C@@H]3CN(C)CCO3)nc3c(F)c(-c4c(C)ccc5[nH]nc(C)c45)c(Cl)cc23)C[C@H]1C [Compound 188, 1-((2R,5S)-4-(6-chloro-7-(3,5-dimethyl-1H-indazol-4-yl)-8-fluoro-2-(((S)-4-methylmorpholin-2-yl)methoxy)quinazolin-4-yl)-2,5-dimethylpiperazin-1-yl)prop-2-en-1-one]
- Binding %: +++ (+++ indicates binding activity greater than 80%)

SMILES: C=CC(=O)N1C[C@H](C)N(c2nc(N3CC(N(C)C)C3)nc3c(F)c(-c4ccc(F)c5cnn(C6CC6)c45)c(Cl)cc23)C[C@H]1C (atropisomer, axis not shown) [Compound 217, 1-((2R,5S)-4-((S)-6-chloro-7-(1-cyclopropyl-4-fluoro-1H-indazol-7-yl)-2-(3-(dimethylamino)azetidin-1-yl)-8-fluoroquinazolin-4-yl)-2,5-dimethylpiperazin-1-yl)prop-2-en-1-one]
- Binding %: + (+ indicates binding activity greater than 0% and up to 50%)

SMILES: C=CC(=O)N1C[C@H](C)N(c2nc(OCCN3CC(F)(F)C3)nc3c(F)c(-c4c(C)ccc5[nH]nc(N)c45)c(Cl)cc23)C[C@H]1C (atropisomer, axis not shown) [Compound 84, 1-((2R,5S)-4-((R)-7-(3-amino-5-methyl-1H-indazol-4-yl)-6-chloro-2-(2-(3,3-difluoroazetidin-1-yl)ethoxy)-8-fluoroquinazolin-4-yl)-2,5-dimethylpiperazin-1-yl)prop-2-en-1-one]
- Binding %: +++ (+++ indicates binding activity greater than 80%)

SMILES: C=CC(=O)N1C[C@H](C)N(c2nc(N3CC(N(C)C)C3)nc3c(F)c(-c4c(C)ccc5[nH]nnc45)c(Cl)cc23)C[C@H]1C [Compound 94, 1-((2R,5S)-4-(6-chloro-2-(3-(dimethylamino)azetidin-1-yl)-8-fluoro-7-(5-methyl-1H-benzo[d][1,2,3]triazol-4-yl)quinazolin-4-yl)-2,5-dimethylpiperazin-1-yl)prop-2-en-1-one]
- Binding %: ++ (++ indicates binding activity from 50 to 80%)

SMILES: C=CC(=O)N1C[C@H](C)N(c2nc(OCCN3CCC(F)(F)C3)nc3c(F)c(-c4c(C)ccc5cnn(C)c45)c(Cl)cc23)C[C@H]1C (atropisomer, axis not shown) [Compound 136, 1-((2R,5S)-4-((R)-6-chloro-2-(2-(3,3-difluoropyrrolidin-1-yl)ethoxy)-7-(1,6-dimethyl-1H-indazol-7-yl)-8-fluoroquinazolin-4-yl)-2,5-dimethylpiperazin-1-yl)prop-2-en-1-one]
- Binding %: +++ (+++ indicates binding activity greater than 80%)

SMILES: C=CC(=O)N1C[C@H](C)N(c2nc(OCCN3CCOCC3)nc3c(F)c(-c4c(C)ccc5[nH]nc(C6CC6)c45)c(Cl)cc23)C[C@H]1C (atropisomer, axis not shown) [Compound 112, 1-((2R,5S)-4-((S)-6-chloro-7-(3-cyclopropyl-5-methyl-1H-indazol-4-yl)-8-fluoro-2-(2-morpholinoethoxy)quina-zolin-4-yl)-2,5-dimethylpiperazin-1-yl)prop-2-en-1-one]
- Binding %: + (+ indicates binding activity greater than 0% and up to 50%)

SMILES: C=CC(=O)N1C[C@H](C)N(c2nc(N3CC(NC)C3)nc3c(F)c(-c4c(C)ccc5[nH]nc(C)c45)c(Cl)cc23)C[C@H]1C [Compound 140, 1-((2R,5S)-4-(6-chloro-7-(3,5-dimethyl-1H-indazol-4-yl)-8-fluoro-2-(3-(methylamino)azetidin-1-yl)quinazolin-4-yl)-2,5-dimethylpiperazin-1-yl)prop-2-en-1-one]
- Binding %: +++ (+++ indicates binding activity greater than 80%)

SMILES: C=CC(=O)N1C[C@H](C)N(c2nc(N3CC(N(C)C)C3)nc3c(F)c(-c4c(C(C)C)ccc5[nH]ncc45)c(Cl)cc23)C[C@H]1C [Compound 159, 1-((2R,5S)-4-(6-chloro-2-(3-(dimethylamino)azetidin-1-yl)-8-fluoro-7-(5-isopropyl-1H-indazol-4-yl)quinazolin-4-yl)-2,5-dimethylpiperazin-1-yl)prop-2-en-1-one]
- Binding %: + (+ indicates binding activity greater than 0% and up to 50%)

SMILES: C=CC(=O)N1CCN(c2nc(OC[C@@H]3CCCN3C)nc3c(F)c(-c4c(C)ccc5[nH]ncc45)c(Cl)cc23)CC1CC#N (stereo partly drawn) [Compound 271, 2-(1-acryloyl-4-(6-chloro-8-fluoro-7-(5-methyl-1H-indazol-4-yl)-2-(((S)-1-methylpyrrolidin-2-yl)methoxy)quinazolin-4-yl)piperazin-2-yl)acetonitrile]
- Binding %: +++ (+++ indicates binding activity greater than 80%)

SMILES: C=CC(=O)N1C[C@H](C)N(c2nc(N3CC(N(C)C)C3)nc3c(F)c(-c4c(C)ccc5cnn(C(C)C)c45)c(Cl)cc23)C[C@H]1C [Compound 127, 1-((2R,5S)-4-(6-chloro-2-(3-(dimethylamino)azetidin-1-yl)-8-fluoro-7-(1-isopropyl-6-methyl-1H-indazol-7-yl)quinazolin-4-yl)-2,5-dimethylpiperazin-1-yl)prop-2-en-1-one]
- Binding %: ++ (++ indicates binding activity from 50 to 80%)

SMILES: C=CC(=O)N1C[C@H](C)N(c2nc(N3CC(N(C)C)C3)nc3c(F)c(-c4c(C)ccc5sncc45)c(Cl)cc23)C[C@H]1C [Compound 124, 1-((2R,5S)-4-(6-chloro-2-(3-(dimethylamino)azetidin-1-yl)-8-fluoro-7-(5-methylbenzo[d]isothia-zol-4-yl)quinazolin-4-yl)-2,5-dimethylpiperazin-1-yl)prop-2-en-1-one]
- Binding %: ++ (++ indicates binding activity from 50 to 80%)

SMILES: C=CC(=O)N1C[C@H](C)N(c2nc(OCCCN(C)C)nc3c(F)c(-c4c(C)ccc5cnn(C)c45)c(Cl)cc23)C[C@H]1C (atropisomer, axis not shown) [Compound 153, 1-((2R,5S)-4-((S)-6-chloro-7-(1,6-dimethyl-1H-indazol-7-yl)-2-(3-(dimethylamino)pro-poxy)-8-fluoroquinazolin-4-yl)-2,5-dimethylpiperazin-1-yl)prop-2-en-1-one]
- Binding %: + (+ indicates binding activity greater than 0% and up to 50%)
